We go through 7 compounds from US20260344621A1, “CHEMICAL DISBUDDING METHOD” (WELFARE CONCEPTS LIMITED, priority 2022, published 2026).

Data set [1] deals with horn buds. The data set can be described thus: General conclusion on chemical disbudding agents: efficacy. In kind it is in vivo, calves. As to the method: (§1) A study was performed to test the disbudding efficacy from the administration to horn buds of mepacrine dihydrochloride, compared to a conventional hot iron disbudding method. The mepacrine dihydrochloride was administered as compositions comprising mepacrine dihydrochloride suspended in water. The compositions were prepared by dispersing mepacrine dihydrochloride powder into water for injection. Immediately before administration the compositions were shaken to re-suspend the mepacrine dihydrochloride.
(§2) A study on calves was performed to test the disbudding efficacy from the administration to horn buds of chloroquine diphosphate and polidocanol.
(§3) Sixteen calves (4 to 6 days old) obtained from commercial dairy farms were used in this study. The calves were randomly assigned to receive one of the four formulations (Table 3). Animals were gently restrained and the hair around the horn bud region was clipped. The formulations (0.3 to 0.5 mL) were then injected subcutaneously under the right horn bud or around the right horn bud using a McLintock syringe and needle (22G 11/64″, 0.71*4.3 mm) which delivered 0.1 mL on each injection. The left horn bud acted as control. The details of the treatment are given in the below Table 3. […] The differences in the growth rate of the right and left horn buds were determined by measuring the height of the horn buds at regular intervals. Photos of the horn buds were taken at the same time. Calves will be euthanized after 4 months by intravenous injection of pentobarbitone sodium (100 mg/kg bodyweight) for gross pathology and histopathology of horn buds.

Data set [2] relates to horn buds. Kind of data set: Example 2: disbudding efficacy of chloroquine diphosphate and polidocanol, 90 days observation. In kind it is in vivo, calves. The note with it: for Horn growth / Scurs / Success rate / No horn growth: 90 days. The method, then: as §2
The chloroquine diphosphate was administered as compositions comprising chloroquine diphosphate suspended in water. The compositions were prepared by dispersing chloroquine diphosphate powder into water for injection. Immediately before administration the compositions were shaken to re-suspend the chloroquine diphosphate.
(§4) The polidocanol was administered either as undiluted polidocanol when administered at 100% concentration, or as a diluted solution with water for the 90%, 50% and 10% concentration groups.
The animals in the study were divided into multiple groups. Groups 1 and 2 were administered saline solution (0.9% sodium chloride) administered as a single dose for group 1, and as divided doses for group 2. Each divided dose comprised 5 doses of 0.1 mL administered around the horn bud.
Groups 3 and 4 were administered chloroquine diphosphate at either 100 mg/ml or 300 mg/mL, and groups 5 to 8 were administered polidocanol are different concentrations ranging from 100% to 10% w/v.

In data set [3] the test system is horn buds. The data set can be described thus: Example 3: growth rate of horn buds / efficacy of mepacrine and eugenol formulations. Type of data set: in vivo, calves (4 to 6 days old). The note with it: for Height of right horn bud on 40th day / Height of right horn bud on 80th day / Horn growth rate (height of horn buds on 80th day minus height on 40th day), right horn bud: individual calf. As to the method: as §3, with “The formulations (0.3 to 0.5 mL) were then injected subcutaneously under the right horn bud or around the right horn bud using a McLintock syringe and needle (22G 11/64″, 0.71*4.3 mm) which delivered 0.1 mL on each injection.” left out

Data set [4] concerns horn-bud tissue. The settings on record: injected under the horn bud; Sutherland et al 2019; cited from earlier work.
Data set [5] can be described thus: Example 3: pain related behaviors and adverse effects following injection. Type of data set: in vivo, calves (4 to 6 days old). As to the method:
as §3

The test system of data set [6] is horn buds. Kind of data set: Example 1: disbudding efficacy of mepacrine dihydrochloride suspended in water, 90 days observation. Type of data set: in vivo, calves (bovine dairy calves, 7 days of age). The settings on record: for Horn growth / Scurs / Success rate / No horn growth: 10 animals treated, 90 days. As to the method: as §1
The animals in the study (calves) were divided into multiple groups. Groups 1 to 4 were administered a single dose of 0.5 mL of mepacrine dihydrochloride composition, with each being administered a composition with a different concentration of mepacrine dihydrochloride, ranging from 50 mg/mL to 400 mg/mL.
Groups 5 to 8 were administered a divided dose of 0.5 mL of mepacrine dihydrochloride composition, with each being administered a composition with a different concentration of mepacrine dihydrochloride, ranging from 50 mg/mL to 400 mg/mL. Each divided dose comprised 5 doses of 0.1 mL administered around the horn bud.
(§5) The administration of the mepacrine dihydrochloride was performed by injecting the mepacrine dihydrochloride composition using a McLintock pre-set syringe configured to administer up to 0.5 mL. The single dose administration for groups 1 to 4 was performed by injecting the composition directly into the horn bud. The divided dose administration for groups 5 to 8 was performed by injecting the smaller doses to the area immediately around the horn bud. The animals in control group 9 were first treated with a 2% lignocaine injection as a cornual nerve block and then disbudded using a conventional hot-iron.
The left horn bud on each animal was left untreated as a control.
(§6) The animals in the study were bovine dairy calves, progressively enrolled in the study and treated at 7 days of age.
The success rate is based on the proportion of treated horn buds that had no subsequent horn growth or presence of a scur. A horn scur is a distorted horn that is not attached to the skull. […] The untreated horn bud on every animal developed into a horn.

The nature of data set [7]: Example 1: pain response and procedure time. In kind it is in vivo, calves (bovine dairy calves, 7 days of age). The method, then: as §1, §5, §6
The administration procedure of disbudding by administering mepacrine was less than 1 minute for each animal, compared to 5-10 minutes for the animals disbudded with the hot-iron.

For data set [8], the system named is horn bud. The note with it: high concentrations injected into the horn bud; Koger 1976; cited from earlier work.
The conditions of data set [9]: prior trials; cited from earlier work.
A short description of data set [10]: Example 2: viscosity of the polidocanol compositions (observation). Type of data set: physicochemical. The settings on record: eg. 90%. The method, then:
as §4

Data set [11] has as its system horn bud tissue. The note with it: as a cryogenic fluid; cited from earlier work.
Where [12] appears, read: 100 mg/mL, single injection (0.5 mL), 3 animals treated.
Setting [13] is: 300 mg/ml, single injection (0.5 mL), 4 animals treated.
The mark [14] stands for this setting: 50 mg/mL, multiple injections (5 × 0.1 mL).
Setting [15] is: 50 mg/mL, single injection (0.5 mL).
Where [16] appears, read: 100 mg/mL, multiple injections (5 × 0.1 mL).
The mark [17] stands for this setting: 100 mg/mL, single injection (0.5 mL).
The mark [18] stands for this setting: 200 mg/mL, multiple injections (5 × 0.1 mL).
[19] abbreviates: 200 mg/mL, single injection (0.5 mL).
Setting [20] is: 400 mg/mL, multiple injections (5 × 0.1 mL).
Where [21] appears, read: 400 mg/mL, single injection (0.5 mL).
The mark [22] stands for this setting: 50% polidocanol (0.5 mL), 4 animals treated.
Setting [23] is: 90% polidocanol (0.5 mL), 4 animals treated.
[24] abbreviates: 100% polidocanol (0.5 mL), 1 animal treated.

“Also recorded” adds a separate entry of the source. Structures can show the parent of a compound that is named as a salt.

With `CCN(CC)CCCC(C)Nc1ccnc2cc(Cl)ccc12` (stereo not drawn) [Chloroquine diphosphate], the “Function as chemical disbudding agents” value in data set [1] was “effective chemical disbudding agents”. In data set [2] (setting [12]), the Horn growth was 2, the Scurs stood at 1 and the Success rate is given as 0%. Further, in data set [2] (300 mg/mL), the “Disbudding success (in words)” value was “some success”; the “Horn growth outcome (in words)” value was “half the animals having no horn growth at all, and the other have having only scurs forming”. In [2] (setting [13]), this compound came in with a No horn growth of 2, a Scurs of 2 and a Success rate of 50%.

Consider `C=CCc1ccc(O)c(OC)c1` [Eugenol], for which the “Height of right horn bud on 40th day” value in data set [3] (0.2 mL under the horn bud) is listed as “(5-5) mm”; in data set [3] (0.3 mL under the horn bud) it was “(8-8) mm”; in data set [3] (0.4 mL around the horn bud), 17 mm; in [3] (0.5 mL around the horn bud) it was 8 mm; in [3] (0.5 mL under the horn bud), 14 mm. The “Height of right horn bud on 80th day” value in [3] (0.2 mL under the horn bud) was “(5-5) mm”; in data set [3] (0.3 mL under the horn bud) it was “(8-8) mm”; in data set [3] (0.4 mL around the horn bud) it was 19 mm; in data set [3] (0.5 mL around the horn bud), 10 mm; in data set [3] (0.5 mL under the horn bud), 22 mm. For the same compound, the “Horn growth rate (height of horn buds on 80th day minus height on 40th day), right horn bud” value in [3] (0.2 mL under the horn bud) is 0 mm; in data set [3] (0.3 mL under the horn bud) it was 0 mm; in data set [3] (0.4 mL around the horn bud), 2mm; in [3] (0.5 mL around the horn bud) it was 2 mm; in [3] (0.5 mL under the horn bud) it was 8 mm. Also, in data set [3] (N = 5 (aqueous mepacrine), 5 (eugenol), 2 (20:80), 3 (80:20)), the “Effective (number of animals), subjective assessment of efficacy” value is listed as 3. Further, the “Ineffective (number of animals), subjective assessment of efficacy” value in data set [3] (N = 5 (aqueous mepacrine; around the horn bud), 5 (eugenol), 3 (80:20; around the horn bud)) is listed as 2. The “Ineffective, of these around the horn bud (number of animals)” value in [3] (eugenol, N = 5, around the horn bud) came to 1. Further, the Disbudding efficacy result in data set [4] is given as “relatively ineffective, delaying rather preventing horn growth in many cases”. In addition, the “Character and course of the swelling” value in data set [5] (following the injection) is “painless to touch and resolved after few days”. For the same compound, the “Swelling around the horn buds” value in [5] (following the injection) is “Swelling around the horn buds was observed; also recorded: Painless swelling at site of injection”. The “Swelling and scars at the site of injection” value in [5] (main finding 4) was “slight swelling and scars at the site of injection”. Moreover, the “Scars and depression at the site of injection” value in data set [5] (site of injection) is “scars and depression were seen at the site of injection”.

On to `CCN(CC)CCCC(C)Nc1c2ccc(Cl)cc2nc2ccc(OC)cc12` (stereo not drawn) [Mepacrine dihydrochloride], for which the “Function as chemical disbudding agents” value in data set [1] is “effective chemical disbudding agents”. Further, the Horn growth in [6] (setting [14]) is listed as 9; in [6] (setting [15]), 7; in data set [6] (setting [16]), 2; in data set [6] (setting [17]) it was 7; in data set [6] (setting [19]), 1; in [6] (setting [20]) it was 1. Besides, the Scurs in data set [6] (setting [14]) was determined as 1; in [6] (setting [16]), 3; in data set [6] (setting [18]) it was 1; in [6] (setting [19]), 1; in [6] (setting [20]), 2; in [6] (setting [21]), 2. Also, the Success rate in [6] (setting [14]) came to 0%; in data set [6] (setting [15]) it was 30%; in data set [6] (setting [16]), 50%; in data set [6] (setting [17]) it was 30%; in data set [6] (setting [18]), 90%; in [6] (setting [19]), 80%. Also, the Success rate in data set [6] (setting [20]) came to 70%; in data set [6] (setting [21]), 80%. Besides, the No horn growth in data set [6] (setting [15]) stood at 3; in data set [6] (setting [16]), 5; in [6] (setting [17]), 3; in data set [6] (setting [18]) it was 9; in data set [6] (setting [19]), 8; in data set [6] (setting [20]), 7. Moreover, the No horn growth in data set [6] (setting [21]) worked out at 8. Also, the “Success rate (in words)” value in [6] (0.5 mL of 200 mg/mL and 400 mg/L (so in the source), single injection and divided dose) is “high success rates”. For the same compound, the “Success rate by concentration (in words)” value in data set [6] (200 and 400 mg/mL vs 50 and 100 mg/mL) was “higher success rate in the higher concentration groups of 200 and 400 mg/mL”. In data set [6] (single vs multiple injections), the “Advantage of splitting the dose into multiple injections” value is recorded as “no noticeable advantage”. For the same compound, the Pain response entry in [7] (after mepacrine disbudding treatment) is given as “very little pain response”. The “Discomfort and pain reactions/behaviour” value in data set [7] (during administration) is “very little discomfort during administration and showed no pain reactions/behaviour”. The “Discomfort / pain activity during and after injections” value in data set [7] (during injections and after completion) is “discomfort during the injections and no subsequent pain activity after completion of the injections”.

As to `[Ca+2].[Cl-].[Cl-]` [calcium chloride], in data set [8], the Inflammation entry was “significant inflammation” and the “Necrosis of the tissue” value is “causing necrosis of the tissue”.

`[Na+].[OH-]` [caustic soda]: the Adverse effects result in data set [9] was “can lead to blindness of the treated animals”.

As to Polidocanol, in [10], the “Viscosity of the higher concentration compositions” value is given as “highly viscous”. For the same compound, in data set [1], the “Function as chemical disbudding agents” value is listed as “effective chemical disbudding agents”. Besides, the No horn growth was found to be 1 in [2] (10% polidocanol (0.5 mL), 1 animal treated); 1 in data set [2] (setting [23]); 1 in [2] (setting [24]). The figures for the Horn growth in [2] (setting [22]) and in data set [2] (setting [23]) were 3 and 1, respectively. The values for the Scurs in data set [2] (setting [22]) and in data set [2] (setting [23]) were 1 and 2, respectively. Besides, the figures for the Success rate in [2] (setting [22]), in [2] (setting [23]) and in [2] (setting [24]) were 0%, 25% and 100%, respectively. For the same compound, the “Disbudding success (in words)” value in data set [2] (100% concentration and 10% concentration) is recorded as “successful”; in data set [2] (other concentrations (90%, 50%)), “less successful”.

Regarding liquid nitrogen, the “Destruction of horn bud tissue” value in [11] is “almost entirely ineffective”.
